# Assays:
# human BACE1 = human BACE1 (Homo sapiens, UniProt P56817); assay: BACE1 fluorescent kinetic assay (cleavage of peptide substrate WABC-6); assay type: biochemical; conditions: 10 nM enzyme, 25 μM substrate WABC-6, pH 4.5, room temperature
# Description: Evaluation of BACE1 Binding Affinity of Test Compounds
# Fluorescent Kinetic Assays
# Dilution and mixing steps: total reaction volume: 100 μL
# 100 μM substrate dilution in 1×PBS was prepared, and
# Fluorescence Readings: Readings at λex 320 nm and λem 420 nm are taken every 40 sec for 30 min at room temperature and the linear slope for substrate cleavage rate (vi) determined.
# Sequence of human BACE1 (P56817 46-501): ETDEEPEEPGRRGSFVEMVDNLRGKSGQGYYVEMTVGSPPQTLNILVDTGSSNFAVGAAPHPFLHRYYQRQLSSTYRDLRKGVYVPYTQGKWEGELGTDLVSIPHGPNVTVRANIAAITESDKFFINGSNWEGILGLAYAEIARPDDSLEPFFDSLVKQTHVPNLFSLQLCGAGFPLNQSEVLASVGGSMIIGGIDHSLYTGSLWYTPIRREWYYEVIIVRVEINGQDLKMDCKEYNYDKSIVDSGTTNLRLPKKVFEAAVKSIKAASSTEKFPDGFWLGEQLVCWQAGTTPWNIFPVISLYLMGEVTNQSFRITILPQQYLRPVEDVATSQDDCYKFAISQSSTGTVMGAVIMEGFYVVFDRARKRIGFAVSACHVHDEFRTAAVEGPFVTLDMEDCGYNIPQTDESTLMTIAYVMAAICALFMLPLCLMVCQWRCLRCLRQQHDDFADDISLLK
melting point,"IC50 (human BACE1; Activity Table, Examples 1-108)",IC50 (human BACE1; Examples 109-141),Compound
–,–,110 to 1000 nM,"CC(=O)Nc1cccc(C2(c3ccc(OC(F)F)cc3)N=C(N)N(C)C2=O)c1 (stereo not drawn) [Example 116, N-(3-{2-amino-4-[4-(difluoromethoxy)phenyl]-1-methyl-5-oxo-4,5-dihydro-1H-imidazol-4-yl}phenyl)acetamide]"
–,–,< 100 nM,"CN1C(=O)C(c2ccc(OC(F)F)cc2)(c2cccc(NC(=O)c3ccc4c(c3)CCO4)c2)N=C1N (stereo not drawn) [Example 117, N-(3-{2-amino-4-[4-(difluoromethoxy)phenyl]-1-methyl-5-oxo-4,5-dihydro-1H-imidazol-4-yl}phenyl)-2,3-dihydro-1-benzofuran-5-carboxamide]"
–,–,< 100 nM,"C=CCCCCc1cccc(C2(c3ccc(OC(F)F)cc3)N=C(N)N(C)C2=O)c1 (stereo not drawn) [Example 121, 2-amino-5-[4-(difluoromethoxy)phenyl]-5-(3-hex-5-en-I-ylphenyl)-3-methyl-3,5dihydro-4H-imidazol-4-one]"
–,–,< 100 nM,"C=CCCCCc1cccc(C2(c3ccc(OC(F)F)cc3)N=C(N)N(C)C2=O)c1 (stereo not drawn) [Example 125, 2-amino-5-[4-(difluoromethoxy)phenyl]-5-(3-hex-5-en-I-ylphenyl)-3-methyl-3,5-dihydro-4H-imidazol-4-one]"
–,–,110 to 1000 nM,"CCCCCCc1cccc(C2(c3ccc(OC(F)F)cc3)N=C(N)N(C)C2=O)c1 (stereo not drawn) [Example 126, 2-amino-5-[4-(difluoromethoxy)phenyl]-5-(3-hexylphenyl)-3-methyl-3,5-dihydro-4Himidazol-4-one]"
–,–,< 100 nM,"COCCCC/C=C/c1cccc([C@@]2(c3ccc(OC(F)F)cc3)N=C(N)N(C)C2=O)c1 [Example 129, (R,E)-2-amino-4-(4-(difluoromethoxy)phenyl)-4-(3-(6-methoxyhex-1-enyl)phenyl)-1-methyl-1H-imidazol-5(4H)-one]"
–,–,110 to 1000 nM,"CC(C)Oc1cc(C2(c3ccc(OC(F)F)cc3)N=C(N)N(C)C2=O)ccc1F (stereo not drawn) [Example 136, 2-amino-5-[4-(difluoromethoxy)phenyl]-5-(4-fluoro-3-isopropoxyphenyl)-3-methyl-3,5-dihydro-4H-imidazol-4-one]"
–,–,< 100 nM,"CC(C)C#Cc1cc(C2(c3ccc(OC(F)F)cc3)N=C(N)N(C)C2=O)ccc1F (stereo not drawn) [Example 138, 2-amino-5-[4-(difluoromethoxy)phenyl]-5-[4-fluoro-3-(3-methylbut-1-yn-1-yl)phenyl]-3-methyl-3,5-dihydro-4H-imidazol-4-one]"
–,–,> 1000 nM,"CN1C(=O)[C@@](c2ccc(OC(F)F)cc2)(c2ccc(F)c(/C=C/CCF)c2)N=C1N [Example 140, (5R)-2-amino-5-[4-(difluoromethoxy)phenyl]-5-{4-fluoro-3-[(1E)-4-fluorobut-1-en1-yl]phenyl}-3-methyl-3,5-dihydro-4H-imidazol-4-one]"
–,–,< 100 nM,"CN1C(=O)[C@](c2ccc(OC(F)F)cc2)(c2ccc(F)c(/C=C/CCF)c2)N=C1N [Example 141, (5S)-2-amino-5-[4-(difluoromethoxy)phenyl]-5-{4-fluoro-3-[(1E)-4-fluorobut-1-en-1-yl]phenyl}-3-methyl-3,5-dihydro-4H-imidazol-4-one]"

# Second part, the compound before the results:
Compound,melting point,"IC50 (human BACE1; Activity Table, Examples 1-108)",IC50 (human BACE1; Examples 109-141)
"C=CCCC(F)c1cccc(C2(c3ccc(OC(F)F)cc3)N=C(N)N(C)C2=O)c1 (stereo not drawn) [Example 12, 2-Amino-5-(4-difluoromethoxy-phenyl)-5-[3-(1-fluoro-pent-4-enyl)-phenyl]-3-methyl-3,5-dihydro-imidazol-4-one]",50 to 55 °C,< 100 nM,–
"C=CCCC(F)c1cc(C2(c3ccc(OC(F)F)cc3)N=C(N)N(C)C2=O)ccc1F (stereo not drawn) [Example 13, 2-Amino-5-(4-difluoromethoxy-phenyl)-5-[4-fluoro-3-(1-fluoro-pent-4-enyl)-phenyl]-3-methyl-3,5-dihydro-imidazol-4-one]",50 to 55 °C,110 to 1000 nM,–
"CN1C(=O)C(c2ccc(OC(F)F)cc2)(c2ccc(F)c(CCCC#N)c2)N=C1N (stereo not drawn) [Example 14, 4-{5-[2-Amino-4-(4-difluoromethoxy-phenyl)-1-methyl-5-oxo-4,5-dihydro-1H-imidazol-4-yl]-2-fluoro-phenyl}-butyronitrile]",65 to 70 °C,< 100 nM,–
"Cc1cc(C2(c3ccc(OC(F)F)cc3)N=C(N)N(C)C2=O)ccc1F (stereo not drawn) [Example 15, 2-Amino-5-(4-difluoromethoxy-phenyl)-5-(4-fluoro-3-methyl-phenyl)-3-methyl-3,5-dihydro-imidazol-4-one]",70 °C,110 to 1000 nM,–
"COc1ccc(C2(c3ccc(OC(F)F)cc3)N=C(N)N(C)C2=O)cc1C#N (stereo not drawn) [Example 16, 5-[2-Amino-4-(4-difluoromethoxy-phenyl)-1-methyl-5-oxo-4,5-dihydro-1H-imidazol-4-yl]-2-methoxy-benzonitrile]",104 to 105 °C,> 1000 nM,–
"CN1C(=O)[C@@](c2ccc(OC(F)F)cc2)(c2ccc(F)c(OCCC(F)F)c2)N=C1N [Example 94, (5R)-2-Amino-5-[4-(difluoromethoxy)phenyl]-5-[3-(3,3-difluoropropoxy)-4-fluorophenyl]-3-methyl-3,5-dihydro-4H-imidazol-4-one]",–,< 100 nM,–
"Cc1cccc(C2(c3ccc(OC(F)F)cc3)N=C(N)N(C)C2=O)c1 (stereo not drawn) [Example 95, 2-Amino-5-[4-(difluoromethoxy)phenyl]-3-methyl-5-(3-methylphenyl)-3,5-dihydro-4H-imidazol-4-one]",–,110 to 1000 nM,–
"CCOCCC#Cc1cccc(C2(c3ccc(OC(F)F)cc3)N=C(N)N(C)C2=O)c1 (stereo not drawn) [Example 96, 2-Amino-5-[4-(difluoromethoxy)phenyl]-5-[3-(4-ethoxybut-1-yn-1-yl)phenyl]-3-methyl-3,5-dihydro-4H-imidazol-4-one]",–,< 100 nM,–
"CN1C(=O)C(c2ccc(OC(F)F)cc2)(c2ccc(F)c(C#CCF)c2)N=C1N (stereo not drawn) [Example 99, 2-amino-5-[4-(difluoromethoxy)phenyl]-5-[4-fluoro-3-(3-fluoroprop-1-yn-1-yl)phenyl]-3-methyl-3,5-dihydro-4H-imidazol-4-one]",–,< 100 nM,–
"CN1C(=O)C(c2ccc(OC(F)F)cc2)(c2ccc(F)c(C#CCCF)c2)N=C1N (stereo not drawn) [Example 102, 2-amino-5-[4-(difluoromethoxy)phenyl]-5-[4-fluoro-3-(4-fluorobut-1-yn-1-yl)phenyl]-3-methyl-3,5-dihydro-4H-imidazol-4-one]",–,< 100 nM,–
"CN1C(=O)[C@](c2ccc(OC(F)F)cc2)(c2ccc(F)c(C#CCCF)c2)N=C1N [Example 103, (5S)-2-amino-5-[4-(difluoromethoxy)phenyl]-5-[4-fluoro-3-(4-fluorobut-1-yn-1-yl)phenyl]-3-methyl-3,5-dihydro-4H-imidazol-4-one]",–,> 1000 nM,–
"CN1C(=O)[C@@](c2ccc(OC(F)F)cc2)(c2ccc(F)c(C#CCCF)c2)N=C1N [Example 104, (5R)-2-amino-5-[4-(difluoromethoxy)phenyl]-5-[4-fluoro-3-(4-fluorobut-1-yn-1-yl)phenyl]-3-methyl-3,5-dihydro-4H-imidazol-4-one]",–,< 100 nM,–
"CN1C(=O)[C@@](c2ccc(OC(F)F)cc2)(c2ccc(F)c(C#CCF)c2)N=C1N [Example 107, (5R)-2-amino-5-[4-(difluoromethoxy)phenyl]-5-[4-fluoro-3-(3-fluoroprop-1-yn-1-yl)phenyl]-3-methyl-3,5-dihydro-4H-imidazol-4-one]",–,< 100 nM,–
"CN1C(=O)[C@](c2ccc(OC(F)F)cc2)(c2ccc(F)c(C#CCF)c2)N=C1N [Example 108, (5S)-2-amino-5-[4-(difluoromethoxy)phenyl]-5-[4-fluoro-3-(3-fluoroprop-1-yn-1-yl)phenyl]-3-methyl-3,5-dihydro-4H-imidazol-4-one]",–,> 1000 nM,–
"CCOC/C=C(\C)c1cccc(C2(c3ccc(OC(F)F)cc3)N=C(N)N(C)C2=O)c1 (stereo not drawn) [Example 109, 2-amino-5-[4-(difluoromethoxy)phenyl]-5-{3-[(1E)-3-ethoxy-1-methylprop-1-en-1-yl]phenyl}-3-methyl-3,5-dihydro-4H-imidazol-4-one]",–,–,110 to 1000 nM
"C=CC[C@H](C)c1cccc(C2(c3ccc(OC(F)F)cc3)N=C(N)N(C)C2=O)c1 (stereo partly drawn) [Example 110, 2-amino-5-[4-(difluoromethoxy)phenyl]-3-methyl-5-{3-[(1S)-1-methylbut-3-en-1-yl]phenyl}-3,5-dihydro-4H-imidazol-4-one]",–,–,110 to 1000 nM
"COCCC(C)c1cccc(C2(c3ccc(OC(F)F)cc3)N=C(N)N(C)C2=O)c1 (stereo not drawn) [Example 111, 2-amino-5-[4-(difluoromethoxy)phenyl]-5-[3-(3-methoxy-1-methylpropyl)phenyl]-3-methyl-3,5-dihydro-4H-imidazol-4-one]",–,–,> 1000 nM
"CCOCCC(C)c1cccc(C2(c3ccc(OC(F)F)cc3)N=C(N)N(C)C2=O)c1 (stereo not drawn) [Example 112, 2-amino-5-[4-(difluoromethoxy)phenyl]-5-[3-(3-ethoxy-1-methylpropyl)phenyl]-3-methyl-3,5-dihydro-4H-imidazol-4-one]",–,–,> 1000 nM
"Cc1cc2cc(C3(c4ccc(OC(F)F)cc4)N=C(N)N(C)C3=O)ccc2o1 (stereo not drawn) [Example 113, 2-amino-5-[4-(difluoromethoxy)phenyl]-3-methyl-5-(2-methyl-1-benzofuran-5-yl)-3,5-dihydro-4H-imidazol-4-one]",–,–,> 1000 nM
"CN1C(=O)C(c2ccc(OC(F)F)cc2)(c2cccc(N)c2)N=C1N (stereo not drawn) [Example 115, 2-amino-5-(3-aminophenyl)-5-[4-(difluoromethoxy)phenyl]-3-methyl-3,5-dihydro-4H-imidazol-4-one]",–,–,> 1000 nM
"methyl[3-(3-{2-amino-4-[4-(difluoromethoxy)phenyl]-1-methyl-5-oxo-4,5-dihydro-1H-imidazol-4-yl}phenyl)-1-methoxycyclobutyl]acetate-methyl[3-(3-{2-amino-4-[4-(difluoromethoxy)phenyl]-1-methyl-5-oxo-4,5-dihydro-1H-imidazol-4-yl}phenyl)cyclobutylidene]acetate (3:1) [Example 55]",–,110 to 1000 nM,–
